# Source: paper PMC4856274, “Mnn10 Maintains Pathogenicity in Candida albicans by Extending α-1,6-Mannose Backbone to Evade Host Dectin-1 Mediated Antifungal Immunity” (PLoS Pathogens, 2016)
# Target: T1, Mnn10 (MBP-fused Mnn10) (Candida albicans, UniProt Q59UR2)
# T1 construct: non-transmembrane region, residues 70-335, MBP fusion (pMAL-p5X), E. coli BL21 (DE3) pLysS, amylose resin; tag kept
# Experiment: mannosyltransferase assay, ANTS labelling of products, FACE gel
# Format: biochemical
# Details: 5 mM GDP-D-mannose, 10 mM α-1,6-D-mannobiose, 10 mM MnCl2, 50 mM HEPES pH 7.2, 30 °C, 1 h
# T1 sequence (Q59UR2 entry or part of it): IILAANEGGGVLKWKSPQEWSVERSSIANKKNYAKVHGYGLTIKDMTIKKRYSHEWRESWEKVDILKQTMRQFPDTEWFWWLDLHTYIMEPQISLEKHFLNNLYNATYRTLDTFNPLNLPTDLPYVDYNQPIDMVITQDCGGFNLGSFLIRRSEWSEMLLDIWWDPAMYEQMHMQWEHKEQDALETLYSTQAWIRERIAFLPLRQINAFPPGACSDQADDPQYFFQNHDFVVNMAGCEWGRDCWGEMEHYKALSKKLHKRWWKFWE
SMILES,"mannosyltransferase assay, ANTS labelling of products, FACE gel (donor)","mannosyltransferase assay, ANTS labelling of products, FACE gel (acceptor)"
Nc1nc2c(ncn2[C@@H]2O[C@H](COP(=O)(O)OP(=O)(O)O[C@H]3O[C@H](CO)[C@@H](O)[C@H](O)[C@@H]3O)[C@@H](O)[C@H]2O)c(=O)[nH]1 [GDP-mannose],"Mnn10 catalyzes the transformation of GDP-mannose to α-1,6-mannobiose to form mannotriose and mannotetraose",–
"OC[C@H]1O[C@H](OC[C@H]2OC(O)[C@@H](O)[C@@H](O)[C@@H]2O)[C@@H](O)[C@@H](O)[C@@H]1O (stereo partly drawn) [α-1,6-mannobiose]",–,"required α-1,6-linked mannobiose as an acceptor and GDP-mannose as a donor"
